Measured values taken from US9949964B2, “Tesofensine compositions” (Saniona A/S, priority 2016, dated 2018).

Legend:
[1] = Drug excipient compatibility study, chemical stability of binary mixtures of tesofensine and excipients; format: physicochemical
Description: A compatibility study investigating the chemical stability of binary mixtures of tesofensine and pharmaceutically acceptable excipients has been conducted.

[2] = cited from earlier work
[3] = Dissolution tests / dissolution profile; format: physicochemical
Description: The active ingredient dissolves from the coated tablets within 30 minutes. FIGS. 1, 2 and 3 show dissolution profiles for tesofensine compositions B and C with a dose strength of 0.25 mg, 0.5 mg and 1.0 mg.

[4] = Solubility of the active ingredient in granulating liquid; format: physicochemical; conditions: ethanol/mixtures compared to pure water or ethanol
Description: Microcrystalline cellulose also was compatible with the active ingredient. Hydroxypropylcellulose was selected as binder due to its compatibility with the active ingredient. The amount of binder was adequate to provide sufficient resistance to crushing and plasticity of the granules. Crosscarmelllose sodium was selected as disintegrant as it is an effective disintegrant and is compatible with the active ingredient. The amount of croscarmellose sodium was sufficient to provide the desired disintegration. The amount of magnesium stearate selected was sufficient to avoid sticking to tableting tooling during compression. Ethanol was selected as co-solvent in the granulating liquid as ethanol evaporates easily for improved drying properties of the granulate.

Molecule | Compatibility of excipient with tesofensine [1] | in-vivo half-life [2] | Solubility [3] | Solubility of the active ingredient [4] | Decomposition of tesofensine with excipient [1]
O.OC[C@H]1O[C@@H](O[C@H]2[C@H](O)[C@@H](O)C(O)O[C@@H]2CO)[C@H](O)[C@@H](O)[C@H]1O (stereo partly drawn) [lactose, lactose monohydrate] | compatible | – | – | – | –
CCOC[C@H]1C2CCC(C[C@@H]1c1ccc(Cl)c(Cl)c1)N2C (stereo partly drawn) [tesofensine, (3S,4R)-3-(3,4-dichlorophenyl)-4-(ethoxymethyl)-8-methyl-8-azabicyclo[3.2.1]octane] | – | in the range of days | readily soluble | increased | –
magnesium stearate | Incompatibility | – | – | – | the extent of decomposition was low
